The text below walks through data of patent publication US8338565B2, “Macrocyclic compounds for inhibition of tumor necrosis factor alpha” (Ensemble Therapeutics Corporation, priority 2008, dated 2012).

Experiment [1] deals with T1, TNFα / TNFα receptor (TNFα R1/Fc) (Homo sapiens, UniProt P01375).
T1 construct: purchased R&D Systems
Briefly: Inhibition of binding of TNFα to the TNFα receptor (plate ELISA competition). As to conditions: Table 2; read-out: Activity (IC50, inhibition of TNFα binding to TNFα R1/Fc). An outline of the steps:
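Plates were coated with TNFα at 15 nM. Test compound and 8.33 nM receptor-Fc (PBST, 2% DMSO) were first mixed in solution for 30 min at room temperature, then transferred to the plates for another 30 min. Competition was read by absorbance at 450 nm after HRP anti-human IgG Fc detection with TMB.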
On the technique in general: An ELISA detects its analyte on a solid surface through an enzyme-linked reagent.

Another experiment relates to rat paw edema model. Briefly: Rat paw edema model (carrageenan), anti-inflammatory activity. Type of experiment: in vivo, Sprague-Dawley (SD) rats. As to conditions: Table 10; 3.0 mg/kg PO; 2 h post-carrageenan.
The test system of experiment [2] is TNF-α (degradation of IkB in HeLa cells or A431 cells). The experiment can be described thus: Human cell-based assay: inhibition of TNF-α induced degradation of IkB. As to conditions: HeLa or A431 cells.

Numbered stars: 1 amine (or outer) side, 2 acyl side, 3 side chain; on linkers, the order of the positions; unused ones are H or OH. Bridge positions count the residues as written; N and C are the ends. Square brackets hold non-standard residues; d marks the D form. Peptide text beside a SMILES is read from it. Bip = N[C@@H](Cc1ccc(-c2ccccc2)cc1)C(=O)O; Phe(4-NH2) = Nc1ccc(C[C@H](N)C(=O)O)cc1; d(hPhe) = N[C@H](CCc1ccccc1)C(=O)O; Suc = O=C(CCC(=O)[*:2])[*:1]

T1 sequence (P01375 77-233 limits assumed, species assumed): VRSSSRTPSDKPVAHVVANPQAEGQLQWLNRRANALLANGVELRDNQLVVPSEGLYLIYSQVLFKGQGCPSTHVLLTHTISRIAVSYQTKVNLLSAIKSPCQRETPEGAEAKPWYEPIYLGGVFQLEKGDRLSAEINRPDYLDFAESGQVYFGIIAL

Regarding `O=C1CCC(=O)N[C@H](CCc2ccccc2)C(=O)N[C@@H](Cc2ccc(-c3ccccc3)cc2)C(=O)N[C@H](Cc2ccccc2)C(=O)N[C@H](C(=O)N[C@@H](Cc2ccccc2)C(=O)O)Cc2ccc(cc2)N1` [Compound 202] ([d(hPhe)][Bip][dF][Phe(4-NH2)]F-OH; linker N-4 via Suc), the IC50 in experiment [1] was below 10 µM. Further, the “Change in Paw Volume” value in the experiment on rat paw edema model came to 1.25 ± 0.08 mL. In experiment [2] (5 μM compound, read-out: Inhibition at Various Compound Concentrations, 5 μM), the inhibition at 5 µM was in the range of 10 to 50%. In addition, in experiment [2] (10 μM compound, read-out: Inhibition at Various Compound Concentrations, 10 μM), the inhibition at 10 µM lay in the range of 50 to 80%.
